Source: the Kinase Knowledgebase extract (Sharma et al. 2016)

Target: MAPK14 (human) (UniProt Q16539)
Experiment: Enzyme Assay

Chain of MAPK14 (human) (Q16539 whole entry, looked up): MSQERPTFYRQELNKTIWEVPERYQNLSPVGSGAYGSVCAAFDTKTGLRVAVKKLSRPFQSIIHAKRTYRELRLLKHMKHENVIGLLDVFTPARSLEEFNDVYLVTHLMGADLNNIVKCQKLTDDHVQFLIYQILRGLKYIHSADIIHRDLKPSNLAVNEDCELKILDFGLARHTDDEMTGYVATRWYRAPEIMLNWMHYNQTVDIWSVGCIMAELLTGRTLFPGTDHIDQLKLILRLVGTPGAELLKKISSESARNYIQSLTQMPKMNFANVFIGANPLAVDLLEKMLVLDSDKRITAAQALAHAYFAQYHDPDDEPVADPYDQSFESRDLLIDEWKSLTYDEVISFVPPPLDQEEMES

| IC50 | SMILES |
| --- | --- |
| < 10 nM | Cc1ccc(-n2nc(C(C)(C)C)cc2NC(=O)N[C@H]2CC[C@@H](Oc3ccc4nnc(N5CC[C@@H](O)C5)n4c3)c3ccccc32)cc1 |
| < 10 nM | C[C@H]1COCCN1c1nnc2ccc(O[C@@H]3CC[C@H](NC(=O)Nc4cc(C(C)(C)C)nn4-c4cccc(OCCN(C)C)c4)c4ccccc43)cn12 |
| < 10 nM | Cc1ccc(-n2nc(C(C)(C)C)cc2NC(=O)N[C@H]2CC[C@@H](Oc3ccc4nnc(N5CCCC[C@@H]5C)n4c3)c3ccccc32)cc1 |
| < 10 nM | C[C@H]1CCCCN1c1nnc2ccc(O[C@@H]3CC[C@H](NC(=O)Nc4cc(C(C)(C)C)nn4CCN4CCN(C)CC4)c4ccccc43)cn12 |
| < 10 nM | C[C@H]1CCCCN1c1nnc2ccc(O[C@@H]3CC[C@H](NC(=O)Nc4cc(C(C)(C)C)nn4-c4cccc(CN(C)C)c4)c4ccccc43)cn12 |
| 100 to 500 nM | Cc1ccc(-n2nc(C(C)(C)C)cc2NC(=O)N[C@H]2CC[C@@H](OCCN3CCOCC3)c3ccccc32)cc1 |
| < 10 nM | Cc1ccc(-n2nc(C(C)(C)C)cc2NC(=O)N[C@H]2CC[C@@H](Oc3ccc4nnc(N5CCC(C)(O)CC5)n4c3)c3ccccc32)cc1 |
| < 10 nM | Cc1ccc(-n2nc(C(C)(C)C)cc2NC(=O)N[C@H]2CC[C@@H](Oc3ccc4nnc(N5CCC[C@H]5CO)n4c3)c3ccccc32)cc1 |
| < 10 nM | COCCN(C)Cc1cccc(-n2nc(C(C)(C)C)cc2NC(=O)N[C@H]2CC[C@@H](Oc3ccc4nnc(N5CCCC[C@@H]5C)n4c3)c3ccccc32)c1 |
| < 10 nM | CCN1CCC[C@H]1c1nnc2ccc(O[C@@H]3CC[C@H](NC(=O)Nc4cc(C(C)(C)C)nn4-c4ccc(C)cc4)c4ccccc43)cn12 |
| < 10 nM | Cc1ccc(-n2nc(C(C)(C)C)cc2NC(=O)N[C@H]2CC[C@@H](Oc3ccc4nnc([C@H]5COCCN5C)n4c3)c3ccccc32)cc1 |
| < 10 nM | C[C@H]1CCCCN1c1nnc2ccc(O[C@@H]3CC[C@H](NC(=O)Nc4cc(C(C)(C)C)nn4-c4cccc(OCCN5CCCN(C)CC5)c4)c4ccccc43)cn12 |
| < 10 nM | Cn1cc(-n2nc(C(C)(C)C)cc2NC(=O)N[C@H]2CC[C@@H](Oc3ccc4nnc(N5CCCCC5)n4c3)c3ccccc32)cn1 |
| < 10 nM | CC(C)(C)c1cc(NC(=O)N[C@H]2CC[C@@H](Oc3ccc4nnc(N5CCCCC5)n4c3)c3ccccc32)n(-c2cccc(CN3CCCCC3)c2)n1 |
| < 10 nM | Cc1ccc(-n2nc(C(C)(C)C)cc2NC(=O)N[C@H]2CC[C@@H](Oc3ccc4nnc([C@@H]5CCCN5C(C)C)n4c3)c3ccccc32)cc1 |
| < 10 nM | C[C@H]1CCCCN1c1nnc2ccc(O[C@@H]3CC[C@H](NC(=O)Nc4cc(C(C)(C)C)nn4CCN4CCOCC4)c4ccccc43)cn12 |
| < 10 nM | C[C@H]1CCCCN1c1nnc2ccc(O[C@@H]3CC[C@H](NC(=O)Nc4cc(C(C)(C)C)nn4-c4cccc(CN5CCCC5)c4)c4ccccc43)cn12 |
| < 10 nM | C[C@H]1CCCCN1c1nnc2ccc(O[C@@H]3CC[C@H](NC(=O)Nc4cc(C(C)(C)C)nn4-c4cccc(CCN5CCCCC5)c4)c4ccccc43)cn12 |
| < 10 nM | CCN(C)CCOc1cccc(-n2nc(C(C)(C)C)cc2NC(=O)N[C@H]2CC[C@@H](Oc3ccc4nnc(N5CCCC[C@@H]5C)n4c3)c3ccccc32)c1 |
| < 10 nM | Cc1ccc(-n2nc(C(C)(C)C)cc2NC(=O)N[C@H]2CC[C@@H](Oc3ccc4nnc(N(C)CCO)n4c3)c3ccccc32)cc1 |
| < 10 nM | C[C@@H]1CCC[C@H](C)N1c1nnc2ccc(O[C@@H]3CC[C@H](NC(=O)Nc4cc(C(C)(C)C)nn4-c4cccc(CN5CCN(C)CC5)c4)c4ccccc43)cn12 |
| < 10 nM | C[C@H]1CCCCN1c1nnc2ccc(O[C@@H]3CC[C@H](NC(=O)Nc4cc(C(C)(C)C)nn4-c4cccc(CCN5CCN(C)CC5)c4)c4ccccc43)cn12 |
| < 10 nM | Cc1ccc(-n2nc(C(C)(C)C)cc2NC(=O)N[C@H]2CC[C@@H](Oc3ccc4nnc(N5CCC[C@H](CO)C5)n4c3)c3ccccc32)cc1 |
| < 10 nM | Cc1ccc(-n2nc(C(C)(C)C)cc2NC(=O)N[C@H]2CC[C@@H](Oc3ccc4nnc(N5CCN(C)CC5)n4c3)c3ccccc32)cc1 |
| < 10 nM | Cc1ccc(-c2nc(C(C)(C)C)[nH]c2NC(=O)N[C@H]2CC[C@@H](Oc3ccc4nnc(N5CCCCC5)n4c3)c3ccccc32)cc1 |
